Measurements from ChEMBL document CHEMBL1155407, “Synthesis and evaluation of duocarmycin SA analogs incorporating the methyl 1,2,8,8a-tetrahydrocyclopropa[c]oxazolo[2,3-e]indol-4-one-6-carboxylate (COI) alkylation subunit” (Bioorg Med Chem Lett, 2010).
The source made the active and inactive calls. No cut-off for these calls is given here.

Experiments:
L1210 = test: Cytotoxicity against mouse L1210 cells; format: functional, cell-based
Nucleic Acid [1] = test: Alkylation of cell free 32p end labeled double stranded w794 DNA at 100 uM after 48 hrs by PAGE and autoradiography; format: nucleic-acid assay
Nucleic Acid [2] = test: Alkylation of cell free 32p end labeled double stranded w794 DNA at 10 uM after 48 hrs by PAGE and autoradiography; format: nucleic-acid assay

Row | Structure (SMILES) | IC50 (L1210) [nM] | Activity (Nucleic Acid [1]) | Activity (Nucleic Acid [2])
1 | COC(=O)c1nc2c(O)cc3c(c2o1)C(CCl)CN3C(=O)OC(C)(C)C (stereo unspecified) | 550 | – | –
2 | COC(=O)c1cc2c([nH]1)C(=O)C=C1N(C(=O)c3cc4cc(OC)c(OC)c(OC)c4[nH]3)C[C@H]3C[C@]123 | – | inactive | Active
3 | COC(=O)c1nc2c(O)cc3c(c2o1)C(CCl)CN3C(=O)c1cc2cc(OC)c(OC)c(OC)c2[nH]1 (racemic) | 5.4 | inactive | Active
